From ChEMBL document CHEMBL1201862, “PubChem BioAssay data set” (2004)
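Results reflect a 48-hour exposure of cells in 96-well plates to compound at five concentrations. At the GI50, growth is halved.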 Active and inactive are the calls of the source. No stated cut-off is given here; in the data, active = GI50 up to about 1.1 µM and inactive = higher.

Columns and labels:
Test in all cases: DTP human tumour cell line panel, 48 h
A498 = tested on: A498
A549 = tested on: A549
CCRF-CEM = tested on: CCRF-CEM
DMS-273 = tested on: DMS-273
EKVX = tested on: EKVX
HL-60 = tested on: HL-60
HOP-62 = tested on: HOP-62
HOP-92 = tested on: HOP-92
HT-29 = tested on: HT-29
IGROV-1 = tested on: IGROV-1
K562 = tested on: K562
KM12 = tested on: KM12
M14 = tested on: M14
M19-MEL = tested on: M19-MEL
MOLT-4 = tested on: MOLT-4
NCI-H226 = tested on: NCI-H226
NCI-H23 = tested on: NCI-H23
NCI-H460 = tested on: NCI-H460
NCI-H522 = tested on: NCI-H522
OVCAR-5 = tested on: OVCAR-5
RXF 393 = tested on: RXF 393
SF-268 = tested on: SF-268
SK-MEL-28 = tested on: SK-MEL-28
SK-OV-3 = tested on: SK-OV-3
SNB-19 = tested on: SNB-19
SNB-78 = tested on: SNB-78
SR = tested on: SR
TK-10 = tested on: TK-10
U-251 = tested on: U-251
UACC-62 = tested on: UACC-62
UO-31 = tested on: UO-31
786-0 = tested on: 786-0
ACHN = tested on: ACHN
CAKI-1 = tested on: CAKI-1
COLO 205 = tested on: COLO 205
DLD-1 = tested on: DLD-1
DMS-114 = tested on: DMS-114
HCC 2998 = tested on: HCC 2998
HCT-116 = tested on: HCT-116
HCT-15 = tested on: HCT-15
HOP-18 = tested on: HOP-18
LOX IMVI = tested on: LOX IMVI
Malme-3M = tested on: Malme-3M
OVCAR-3 = tested on: OVCAR-3
OVCAR-4 = tested on: OVCAR-4
OVCAR-8 = tested on: OVCAR-8
RPMI-8226 = tested on: RPMI-8226
SF-295 = tested on: SF-295
SF-539 = tested on: SF-539
SK-MEL-2 = tested on: SK-MEL-2
SK-MEL-5 = tested on: SK-MEL-5
SN12C = tested on: SN12C
SNB-75 = tested on: SNB-75
SW-620 = tested on: SW-620
UACC-257 = tested on: UACC-257
BT-549 = tested on: BT-549
Hs-578T = tested on: Hs-578T
KM-20L2 = tested on: KM-20L2
LXFL 529 = tested on: LXFL 529
MCF7 = tested on: MCF7
NCI/ADR-RES = tested on: NCI/ADR-RES
PC-3 = tested on: PC-3
XF498 = tested on: XF498
DU-145 = tested on: DU-145
MDA-MB-231 = tested on: MDA-MB-231
MDA-MB-435 = tested on: MDA-MB-435
MDA-N = tested on: MDA-N
T47D = tested on: T47D

Measured: GI50

N#CC1Sc2ccccc2-n2cccc21 (configuration not stated)
inactive: A498 67.6 µM | A549 45 µM | CCRF-CEM 70.8 µM | DMS-273 44 µM | EKVX 61.2 µM | HL-60 22.8 µM | HOP-62 > 100 µM | HOP-92 42.6 µM | HT-29 > 100 µM | IGROV-1 > 100 µM | K562 26.7 µM | KM12 85.7 µM | M14 > 100 µM | M19-MEL > 100 µM | MOLT-4 58.9 µM | NCI-H226 4.98 µM | NCI-H23 63.7 µM | NCI-H460 > 100 µM | NCI-H522 36.1 µM | OVCAR-5 24.3 µM | RXF 393 23.2 µM | SF-268 25.1 µM | SK-MEL-28 > 100 µM | SK-OV-3 67.3 µM | SNB-19 > 100 µM | SNB-78 34.7 µM | SR 37.6 µM | TK-10 80 µM | U-251 > 100 µM | UACC-62 30.3 µM | UO-31 25.4 µM

O=C(C#Cc1cnc(O)nc1O)c1ccccc1Cl
15 µM: HCT-15
inactive: 786-0 18 µM | A498 17.9 µM | A549 79.1 µM | ACHN 17.3 µM | CAKI-1 17.1 µM | CCRF-CEM 3.94 µM | COLO 205 15.7 µM | DLD-1 15.5 µM | DMS-114 21.9 µM | DMS-273 19.1 µM | EKVX 20 µM | HCC 2998 16.9 µM | HCT-116 14.4 µM | HL-60 13.3 µM | HOP-18 20 µM | HOP-62 > 100 µM | HOP-92 19.7 µM | HT-29 36.4 µM | IGROV-1 19.5 µM | K562 4.83 µM | KM12 29.6 µM | LOX IMVI 13.4 µM | M14 15.5 µM | MOLT-4 10.3 µM | Malme-3M 13.3 µM | NCI-H226 28.8 µM | NCI-H23 17.1 µM | NCI-H460 24.3 µM | OVCAR-3 14.2 µM | OVCAR-4 17.4 µM | OVCAR-5 19.7 µM | OVCAR-8 15.2 µM | RPMI-8226 23.9 µM | RXF 393 3.07 µM | SF-268 20.7 µM | SF-295 > 100 µM | SF-539 16.3 µM | SK-MEL-28 17.9 µM | SK-MEL-2 16.2 µM | SK-MEL-5 15 µM | SK-OV-3 51.3 µM | SN12C 14.1 µM | SNB-19 52.6 µM | SNB-75 19.9 µM | SNB-78 24.8 µM | SW-620 14.2 µM | TK-10 21.6 µM | U-251 17.9 µM | UACC-257 14.7 µM | UACC-62 16.4 µM | UO-31 21 µM

COc1cc(CNc2ccc(SC)cc2)cc(OC)c1OC
4.08 µM: HCT-15
inactive: 786-0 14.6 µM | A498 22 µM | A549 10 µM | BT-549 3.18 µM | CCRF-CEM 12.2 µM | COLO 205 4.48 µM | DMS-114 5.15 µM | DMS-273 3.08 µM | EKVX 49.7 µM | HCT-116 6.93 µM | HL-60 4.84 µM | HOP-18 33.5 µM | HT-29 4.39 µM | Hs-578T 12.4 µM | KM-20L2 4.3 µM | LOX IMVI 9.42 µM | LXFL 529 18.4 µM | M14 4.38 µM | MCF7 5.69 µM | MOLT-4 4.85 µM | Malme-3M 11 µM | NCI-H460 7.1 µM | NCI-H522 4.92 µM | NCI/ADR-RES 3.78 µM | OVCAR-3 7.26 µM | OVCAR-4 46.9 µM | OVCAR-5 32.1 µM | PC-3 12.4 µM | RPMI-8226 11.9 µM | SK-MEL-2 4.88 µM | SNB-78 48.3 µM | SW-620 4.02 µM | UO-31 20 µM

NC(=O)c1cccc(C2OC(COP(=O)(O)O)C(O)C2O)c1 (configuration not stated)
27.4 µM: HCT-15
inactive: 786-0 21.7 µM | A498 > 50 µM | A549 > 50 µM | ACHN > 50 µM | CAKI-1 > 50 µM | CCRF-CEM 9.93 µM | COLO 205 > 50 µM | DLD-1 36.6 µM | DMS-273 48 µM | EKVX > 50 µM | HCC 2998 > 50 µM | HCT-116 > 50 µM | HL-60 20.7 µM | HOP-62 > 50 µM | HT-29 > 50 µM | IGROV-1 > 50 µM | K562 26.8 µM | KM-20L2 > 50 µM | KM12 > 50 µM | LOX IMVI > 50 µM | LXFL 529 > 50 µM | M14 20 µM | M19-MEL > 50 µM | MOLT-4 10.9 µM | Malme-3M > 50 µM | NCI-H226 32.9 µM | NCI-H23 > 50 µM | NCI-H460 > 50 µM | NCI-H522 > 50 µM | OVCAR-3 > 50 µM | OVCAR-5 > 50 µM | OVCAR-8 16 µM | RPMI-8226 > 50 µM | RXF 393 18.6 µM | SF-268 36.9 µM | SF-295 39.1 µM | SF-539 15.8 µM | SK-MEL-28 45.9 µM | SK-MEL-2 > 50 µM | SK-MEL-5 > 50 µM | SK-OV-3 > 50 µM | SN12C > 50 µM | SNB-19 > 50 µM | SNB-75 14.4 µM | SNB-78 43.7 µM | SW-620 42.9 µM | TK-10 > 50 µM | U-251 > 50 µM | UACC-257 > 50 µM | UACC-62 > 50 µM | UO-31 26.1 µM | XF498 14.7 µM

Cn1c(N)c(-c2c3ccccc3nc3ccccc23)c(=O)n(C)c1=O
> 100 µM: HCT-15
inactive: 786-0 > 100 µM | A498 > 100 µM | A549 > 100 µM | CAKI-1 > 100 µM | CCRF-CEM > 100 µM | COLO 205 > 100 µM | DMS-114 > 100 µM | EKVX > 100 µM | HCT-116 > 100 µM | HL-60 > 100 µM | HOP-18 > 100 µM | HOP-92 > 100 µM | HT-29 > 100 µM | IGROV-1 > 100 µM | K562 > 100 µM | KM-20L2 > 100 µM | KM12 > 100 µM | LXFL 529 > 100 µM | M14 > 100 µM | M19-MEL > 100 µM | MOLT-4 > 100 µM | Malme-3M > 100 µM | NCI-H23 > 100 µM | NCI-H522 > 100 µM | OVCAR-3 > 100 µM | OVCAR-4 > 100 µM | OVCAR-5 > 100 µM | OVCAR-8 > 100 µM | RPMI-8226 > 100 µM | RXF 393 > 100 µM | SF-268 > 100 µM | SF-295 > 100 µM | SF-539 > 100 µM | SK-MEL-28 > 100 µM | SK-MEL-2 > 100 µM | SK-MEL-5 > 100 µM | SK-OV-3 > 100 µM | SN12C > 100 µM | SW-620 > 100 µM | TK-10 > 100 µM | U-251 > 100 µM | UACC-62 > 100 µM

COc1cc(C2c3cc4c(cc3OC(N3CCOCC3)C2C)OCO4)cc(OC)c1OC(C)=O (configuration not stated)
inactive: 786-0 15.8 µM | A498 27.8 µM | A549 15 µM | ACHN 26.6 µM | BT-549 7.89 µM | CAKI-1 16.6 µM | CCRF-CEM 11.7 µM | COLO 205 19.3 µM | DU-145 26.5 µM | EKVX 47.5 µM | HCC 2998 11.9 µM | HCT-116 7.52 µM | HL-60 4.65 µM | HOP-62 12.4 µM | HOP-92 23.9 µM | HT-29 11.5 µM | Hs-578T 2.2 µM | IGROV-1 14.2 µM | K562 3.81 µM | KM12 5.35 µM | LOX IMVI 23.6 µM | M14 9.06 µM | MCF7 8.59 µM | MDA-MB-231 18 µM | MDA-MB-435 2.46 µM | MDA-N 1.99 µM | MOLT-4 13 µM | Malme-3M 5.9 µM | NCI-H226 17.7 µM | NCI-H23 31.3 µM | NCI-H460 7.69 µM | NCI-H522 4.3 µM | NCI/ADR-RES 4.69 µM | OVCAR-3 8.07 µM | OVCAR-4 57.3 µM | OVCAR-5 49.1 µM | OVCAR-8 26 µM | PC-3 13.5 µM | RPMI-8226 26.3 µM | RXF 393 11.6 µM | SF-268 39.3 µM | SF-295 4.15 µM | SF-539 13.3 µM | SK-MEL-28 > 42.1 µM | SK-MEL-2 12.9 µM | SK-MEL-5 4.46 µM | SK-OV-3 11.3 µM | SN12C 17.7 µM | SNB-19 15.5 µM | SNB-75 3.74 µM | SR 6.25 µM | SW-620 6.12 µM | T47D 17.4 µM | TK-10 30.7 µM | U-251 14.3 µM | UACC-257 53.8 µM | UACC-62 5.53 µM | UO-31 28.4 µM
15 µM: HCT-15
